For assay [1], the target named is T1, AChE (E.C. 3.1.1.7, type V-S) (Electrophorus electricus, UniProt O42275).
T1 construct: purchased Sigma-Aldrich type V-S (catalogue number not given); host or cells: electric eel (natural source)
The assay can be described thus: biochemical. The conditions noted are these: Ellman's method, electric eel AChE, mean ± SD. On the procedure: (§1) The inhibitory activity of the designed compounds against BuChE and AChE was evaluated using Ellman's method. […] AChE (E.C. 3.1.1.7, type V-S, lyophilized powder, from the electric eel, 1000 units) and BuChE (E.C. 3.1.1.8, from equine serum), acetylthiocholine iodide (ATCI), butyrylthiocholine iodide (BTCI), and 5,5-dithiobis-(2-nitrobenzoic acid) (DTNB) were all acquired from Sigma-Aldrich. Potassium dihydrogen phosphate, dipotassium hydrogen phosphate, potassium hydroxide, and sodium hydrogen carbonate were obtained from Fluka. […] In this regard, each one of the wells included a 50 µL potassium phosphate buffer, 25 µL sample dissolved in 50 % methanol and 50 % DMSO, and 25 µL enzyme (the final concentration 0.22 U/mL in buffer). Thereafter, the wells were pre-incubated for 15 min at room temperature, and 125 µL DTNB (3 mM in buffer) was added to each plate. […] As well, the IC50 values were expressed as mean ± SD. The percentage of enzyme's inhibition was calculated by comparing with a blank sample (100 % activity). The described method was also used for the BuChE inhibition assay.

Assay [2] deals with T2, BuChE (E.C. 3.1.1.8) (Equus caballus, UniProt P81908).
T2 construct: purchased Sigma-Aldrich; host or cells: equine serum (natural source)
T2 sequence (P81908 whole entry): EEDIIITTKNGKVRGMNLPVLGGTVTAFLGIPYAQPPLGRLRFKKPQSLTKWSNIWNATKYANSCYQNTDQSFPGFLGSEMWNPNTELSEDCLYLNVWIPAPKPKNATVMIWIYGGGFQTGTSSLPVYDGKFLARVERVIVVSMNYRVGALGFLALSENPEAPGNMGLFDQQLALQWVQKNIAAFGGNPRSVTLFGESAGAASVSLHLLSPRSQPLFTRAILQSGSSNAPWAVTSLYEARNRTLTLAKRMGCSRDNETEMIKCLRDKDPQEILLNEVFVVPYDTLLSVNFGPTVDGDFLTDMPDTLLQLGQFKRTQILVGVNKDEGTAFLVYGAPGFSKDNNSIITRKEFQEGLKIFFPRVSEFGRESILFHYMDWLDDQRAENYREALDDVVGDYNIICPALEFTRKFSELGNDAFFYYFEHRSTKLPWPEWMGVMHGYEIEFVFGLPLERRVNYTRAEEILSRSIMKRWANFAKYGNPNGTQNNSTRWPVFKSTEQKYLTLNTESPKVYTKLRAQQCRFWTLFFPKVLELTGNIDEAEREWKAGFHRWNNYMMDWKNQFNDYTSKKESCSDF
The assay can be described thus: biochemical. The conditions noted are these: for IC50: Ellman's method, equine serum BuChE, mean ± SD; for SI (selectivity towards BuChE): SI ratio, values match IC50 AChE / IC50 BuChE. On the procedure: as §1

For assay [3], the system named is AChE. Details: method as in earlier work. To be noted: Figure 2, known inhibitors, ref Wajid et al., 2019, Wu et al., de Andrade et al., Joubert and Kapp, 2020; cited from earlier work.
For assay [4], the system named is BuChE. The conditions noted are these: ref Wajid et al., 2019, Wu et al., cited from earlier work.
The mark [5] stands for this setting: Figure 2, known inhibitors, de Andrade et al., Joubert and Kapp, 2020.

SMILES strings stand for the structures. Like-named read-outs stand apart in the source and are kept apart here.

T1 sequence (O42275 24-633): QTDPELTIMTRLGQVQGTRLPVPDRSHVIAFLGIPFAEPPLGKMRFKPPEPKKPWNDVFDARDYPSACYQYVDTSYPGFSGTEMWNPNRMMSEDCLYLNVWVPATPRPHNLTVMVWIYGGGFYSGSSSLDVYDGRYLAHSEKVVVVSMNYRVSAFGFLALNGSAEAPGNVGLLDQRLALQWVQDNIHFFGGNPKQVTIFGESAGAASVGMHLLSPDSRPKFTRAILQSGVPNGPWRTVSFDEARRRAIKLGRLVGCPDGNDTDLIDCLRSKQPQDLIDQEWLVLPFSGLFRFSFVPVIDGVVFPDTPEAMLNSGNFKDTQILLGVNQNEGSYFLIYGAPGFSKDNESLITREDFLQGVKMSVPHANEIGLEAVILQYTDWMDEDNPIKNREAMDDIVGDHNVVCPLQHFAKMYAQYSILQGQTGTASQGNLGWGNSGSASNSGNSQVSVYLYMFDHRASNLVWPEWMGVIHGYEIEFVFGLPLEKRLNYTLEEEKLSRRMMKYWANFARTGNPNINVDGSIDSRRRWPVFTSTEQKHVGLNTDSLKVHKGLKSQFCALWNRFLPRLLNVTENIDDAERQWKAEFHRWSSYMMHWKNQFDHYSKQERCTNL

For `c1ccc(CN2CCC(c3nc(-c4ccccc4)no3)CC2)cc1` [6a, 5-(1-benzylpiperidin-4-yl)-3-phenyl-1,2,4-oxadiazole], inhibition in assay [1] was half-maximal at 35.5 µM (IC50). Further, in assay [2], the IC50 amounted to 14.2 µM and the “SI (selectivity towards BuChE)” value was determined as 2.49.

As for `Cc1ccc(-c2noc(C3CCN(Cc4ccccc4)CC3)n2)cc1` [6b, 5-(1-benzylpiperidin-4-yl)-3-(p-tolyl)-1,2,4-oxadiazole], the IC50 was greater than 100 µM in assay [1] and 9.81 µM in assay [2]. For the same compound, the “SI (selectivity towards BuChE)” value in assay [2] was greater than 10.19.

As for `Clc1ccc(-c2noc(C3CCN(Cc4ccccc4)CC3)n2)cc1` [6c, 5-(1-benzylpiperidin-4-yl)-3-(4-chlorophenyl)-1,2,4-oxadiazole], the IC50 in assay [1] and in assay [2] was greater than 100 µM in each case.

On to `Fc1ccc(-c2noc(C3CCN(Cc4ccccc4)CC3)n2)cc1` [6d, 5-(1-benzylpiperidin-4-yl)-3-(4-fluorophenyl)-1,2,4-oxadiazole], for which the IC50 in assay [1] came to 21.16 ± 0.13 µM; in assay [2], 24.8 ± 0.97 µM. Also, in assay [2], the “SI (selectivity towards BuChE)” value worked out at 0.85.

As to `Fc1ccc(CN2CCC(c3nc(-c4ccccc4)no3)CC2)cc1` [6e, 5-(1-(4-fluorobenzyl)piperidin-4-yl)-3-phenyl-1,2,4-oxadiazole], the IC50 in assay [1] and in assay [2] was greater than 100 µM in each case.

In assay [1], `Cc1ccc(-c2noc(C3CCN(Cc4ccc(F)cc4)CC3)n2)cc1` [6f, 5-(1-(4-fluorobenzyl)piperidin-4-yl)-3-(p-tolyl)-1,2,4-oxadiazole] had an IC50 greater than 100 µM. In assay [2], the midpoint of inhibition, the IC50, lay at 50.7 ± 0.06 µM and the “SI (selectivity towards BuChE)” value is given as greater than 1.97.

`Fc1ccc(CN2CCC(c3nc(-c4ccc(Cl)cc4)no3)CC2)cc1` [6g, 3-(4-chlorophenyl)-5-(1-(4-fluorobenzyl)piperidin-4-yl)-1,2,4-oxadiazole]: the IC50 in assay [1] and in assay [2] was greater than 100 µM in each case.

With `Fc1ccc(CN2CCC(c3nc(-c4ccc(F)cc4)no3)CC2)cc1` [6h, 5-(1-(4-fluorobenzyl)piperidin-4-yl)-3-(4-fluorophenyl)-1,2,4-oxadiazole], the IC50 in assay [1] and in assay [2] was greater than 100 µM each time.

In the case of `Clc1ccc(CN2CCC(c3nc(-c4ccccc4)no3)CC2)cc1` [6i, 5-(1-(4-chlorobenzyl)piperidin-4-yl)-3-phenyl-1,2,4-oxadiazole], the IC50 in assay [1] and in assay [2] was greater than 100 µM in each case.

`Cc1ccc(-c2noc(C3CCN(Cc4ccc(Cl)cc4)CC3)n2)cc1` [6j, 5-(1-(4-chlorobenzyl)piperidin-4-yl)-3-(p-tolyl)-1,2,4-oxadiazole] returned an IC50 in assay [1] greater than 100 µM. Also, in assay [2], the IC50 is 50.3 ± 0.77 µM and the “SI (selectivity towards BuChE)” value is reported as greater than 1.98.

`Clc1ccc(CN2CCC(c3nc(-c4ccc(Cl)cc4)no3)CC2)cc1` [6k, 5-(1-(4-chlorobenzyl)piperidin-4-yl)-3-(4-chlorophenyl)-1,2,4-oxadiazole]: the IC50 in assay [1] and in assay [2] was greater than 100 µM each time.

On to `Fc1ccc(-c2noc(C3CCN(Cc4ccc(Cl)cc4)CC3)n2)cc1` [6l, 5-(1-(4-chlorobenzyl)piperidin-4-yl)-3-(4-fluorophenyl)-1,2,4-oxadiazole], for which the IC50 in assay [1] and in assay [2] was greater than 100 µM in each case.

Turning to `Clc1ccccc1CN1CCC(c2nc(-c3ccccc3)no2)CC1` [6m, 5-(1-(2-chlorobenzyl)piperidin-4-yl)-3-phenyl-1,2,4-oxadiazole], the IC50 in assay [1] and in assay [2] was greater than 100 µM each time.

In assay [1], `Cc1ccc(-c2noc(C3CCN(Cc4ccccc4Cl)CC3)n2)cc1` [6n, 5-(1-(2-chlorobenzyl)piperidin-4-yl)-3-(p-tolyl)-1,2,4-oxadiazole] had an IC50 greater than 100 µM. For the same compound, in assay [2], the IC50 stood at 5.07 µM and the “SI (selectivity towards BuChE)” value was “greater than 19.72”.

As for `Clc1ccc(-c2noc(C3CCN(Cc4ccccc4Cl)CC3)n2)cc1` [6o, 5-(1-(2-chlorobenzyl)piperidin-4-yl)-3-(4-chlorophenyl)-1,2,4-oxadiazole], the figures for the IC50 in assay [1] and in assay [2] were greater than 100 µM and 81.2 ± 0.98 µM, respectively. For the same compound, the “SI (selectivity towards BuChE)” value in assay [2] is listed as greater than 1.23.

For the compound `Fc1ccc(-c2noc(C3CCN(Cc4ccccc4Cl)CC3)n2)cc1` [6p, 5-(1-(2-chlorobenzyl)piperidin-4-yl)-3-(4-fluorophenyl)-1,2,4-oxadiazole], the concentration for half-maximal inhibition (IC50) in assay [1] and in assay [2] was greater than 100 µM each time.

As for `Cc1ccc(CN2CCC(c3nc(-c4ccccc4)no3)CC2)cc1` [6q, 5-(1-(4-methylbenzyl)piperidin-4-yl)-3-phenyl-1,2,4-oxadiazole], the IC50 in assay [1] and in assay [2] was greater than 100 µM in each case.

Take `Cc1ccc(CN2CCC(c3nc(-c4ccc(C)cc4)no3)CC2)cc1` [6r, 5-(1-(4-methylbenzyl)piperidin-4-yl)-3-(p-tolyl)-1,2,4-oxadiazole]: the IC50 in assay [1] is greater than 100 µM. Besides, in assay [2], the IC50 is 62.8 ± 0.65 µM and the “SI (selectivity towards BuChE)” value is on record as greater than 1.59.

With `Cc1ccc(CN2CCC(c3nc(-c4ccc(Cl)cc4)no3)CC2)cc1` [6s, 3-(4-chlorophenyl)-5-(1-(4-methylbenzyl)piperidin-4-yl)-1,2,4-oxadiazole], the IC50 in assay [1] and in assay [2] was greater than 100 µM in each case.

Consider `Cc1ccc(CN2CCC(c3nc(-c4ccc(F)cc4)no3)CC2)cc1` [6t, 3-(4-fluorophenyl)-5-(1-(4-methylbenzyl)piperidin-4-yl)-1,2,4-oxadiazole], for which the IC50 in assay [1] and in assay [2] was greater than 100 µM in each case.

Regarding `CCCCCCCNC(=O)Oc1cccc(-c2coc3c4c(ccc3c2=O)OC(C)(C)C=C4)c1F` [compound 1], the IC50 in assay [3] is 297 µM; in assay [4] (setting [5]) it was 0.222 µM.

As to `O=C(Nc1c(Cl)cccc1Cl)c1ccc(Br)cc1` [compound 2], the “AChE IC50” value in assay [3] was “inactive”. In addition, the IC50 in assay [4] (Figure 2, known inhibitor) is 0.8 µM.

As to `CC(=O)N[C@@H](Cn1cc(-c2ccccc2)nn1)C(=O)NCC1CCN(Cc2ccccc2)CC1` [compound 3], the IC50 was greater than 10 µM in assay [3] and 0.00017 µM in assay [4] (setting [5]).

On to `COc1cc(C2C3=C(CCCC3=O)NC3=C2C(=O)CCC3)ccc1OCc1ccc(F)cc1` [compound 4], for which the IC50 in assay [3] was 125 µM; in assay [4] (setting [5]), 0.098 µM.

Source of the values: paper PMC8192883, “Novel 1,2,4-oxadiazole derivatives as selective butyrylcholinesterase inhibitors: Design, synthesis and biological evaluation” (EXCLI Journal, 2021).
